Experimental data taken from patent US20130123494A1, “COMPLEX COMPOUND AND OPTICAL RECORDING MEDIUM CONTAINING SAME” (KH NEOCHEM CO., LTD., priority 2010, published 2013).

Legend:
Assay type in all cases: physicochemical
[1] = Lightfastness test of thin films; conditions: thin film on glass plate, UV fluorescent lamps 15 W/m^2, 45° C., 10 hours
Excerpt: Thin films of Complex Compounds (2) to (5), (7), (9) to (11), (13) to (21), (24), (26), (28), (30), (31), and (33) were respectively obtained similarly to the film-forming test except that a glass plate (manufactured by Taiyu Kizai Co., Ltd.; 2 cm×2 cm; thickness: 2 mm) was used as the substrates instead of the plate made of polycarbonate resin. Using a dewpanel light control weather meter DPWL-5R, manufactured by Suga Test Instruments Co., Ltd., which was equipped with ultraviolet fluorescent lamps (SUGA-FS40, manufactured by Suga Test Instruments Co., Ltd., having a peak wavelength of 313 nm and an illuminance distribution of 282 nm to 373 nm), light was irradiated on the thin films with an amount of light of 15 W/m^2 at 45° C. for 10 hours. Ultraviolet-visible absorption spectra of the thin film before and after the lightfastness test were measured using a spectrophotometer.
Here, the absorption maximum wavelength after lightfastness test denotes an absorption maximum wavelength in the absorption spectrum after the lightfastness test.

[2] = Moisture- and heat-resistances test of thin films; conditions: thin film, 80° C., relative humidity 80%, 100 hours
Description: Similarly to the film-forming test, thin films of Complex Compounds (2) to (5), (7), (9) to (11), (13) to (21), (24), (26), (28), (30), (31), and (33) were respectively obtained. Using a constant temperature and humidity chamber, KHWII-40HP, manufactured by Satake Chemical Equipment Mfg Ltd., the thin films were exposed in the atmosphere having a temperature of 80° C. and a relative humidity of 80% for 100 hours. Ultraviolet-visible absorption spectra of the thin films before and after the moisture- and heat-resistances test were measured using a spectrophotometer. […] Here, the absorption maximum wavelength after the moisture- and heat-resistances test denotes the absorption maximum wavelength in an absorption spectrum after the moisture- and heat-resistances test.

[3] = Test of storage stability in solution; conditions: 13 mg in 1 mL TFP, brown bottle, 25° C., 3 days; 1250-fold diluted for measurement
Description: Each of 13 mg of Complex Compounds (2) to (5), (7), (9) to (11), (13) to (21), (24), (26), (28), (30), (31), and (33) was dissolved in 1 mL of TFP, which was filtered with a filter made of TEFLON (registered trademark) (manufactured by Whatman, having a pore diameter of 0.20 μm), and solutions of Complex Compounds (2) to (5), (7), (9) to (11), (13) to (21), (24), (26), (28), (30), (31), and (33) were respectively obtained. Each of the obtained solutions was transferred to a brown bottle with a lid and stored at 25° C. for 3 days. Before and after the storage stability test, using a spectrophotometer, 1250-fold diluted solutions of Complex Compounds (2) to (5), (7), (9) to (11), (13) to (21), (24), (26), (28), (30), (31), and (33), respectively, were measured for their ultraviolet-visible absorption spectra. […] Here, the absorption maximum wavelength after the storage stability test is the absorption maximum wavelength in the absorption spectrum after the storage stability test.

I^a/I^a0 (absorbance ratio at absorption maximum after/before lightfastness test) [1] | I^b/I^b0 (absorbance ratio at absorption maximum after/before moisture- and heat-resistances test) [2] | Δλmax(b) (change in absorption maximum wavelength) [2] [nm] | I^c/I^c0 (absorbance ratio at absorption maximum after/before storage stability test) [3] | Δλmax(c) (change in absorption maximum wavelength) [3] [nm] | Compound
0.88 | 1.00 | 0 | 1.01 | 0 | Cc1ccc(-n2c([O-])c(/C=N/[N-]c3nnnn3-c3ccccc3)c(C)c(C#N)c2=O)cc1.Cc1ccc(-n2c([O-])c(/C=N/[N-]c3nnnn3-c3ccccc3)c(C)c(C#N)c2=O)cc1.Cc1ccc(-n2c([O-])c(/C=N/[N-]c3nnnn3-c3ccccc3)c(C)c(C#N)c2=O)cc1.Cc1ccc(-n2c([O-])c(/C=N/[N-]c3nnnn3-c3ccccc3)c(C)c(C#N)c2=O)cc1.[Co+3].[Co+3].c1cc[n+]2c(c1)-c1cccc[n+]1CCC2 [Complex Compound (26)]
0.91 | 1.00 | 0 | 1.01 | 0 | Cc1c(/C=N/[N-]c2nc3ccccc3o2)c([O-])n(Cc2ccccc2)c(=O)c1C#N.Cc1c(/C=N/[N-]c2nc3ccccc3o2)c([O-])n(Cc2ccccc2)c(=O)c1C#N.Cc1c(/C=N/[N-]c2nc3ccccc3o2)c([O-])n(Cc2ccccc2)c(=O)c1C#N.Cc1c(/C=N/[N-]c2nc3ccccc3o2)c([O-])n(Cc2ccccc2)c(=O)c1C#N.[Co+3].[Co+3].c1cc[n+]2c(c1)-c1cccc[n+]1CCC2 [Complex Compound (33)]
0.85 | 1.00 | 0 | 1.02 | 0 | Cc1c(/C=N/[N-]c2nnnn2-c2ccccc2)c([O-])n(Cc2ccccc2)c(=O)c1C#N.Cc1c(/C=N/[N-]c2nnnn2-c2ccccc2)c([O-])n(Cc2ccccc2)c(=O)c1C#N.Cc1c(/C=N/[N-]c2nnnn2-c2ccccc2)c([O-])n(Cc2ccccc2)c(=O)c1C#N.Cc1c(/C=N/[N-]c2nnnn2-c2ccccc2)c([O-])n(Cc2ccccc2)c(=O)c1C#N.[Co+3].[Co+3].c1ccc(CC[N+]23CC[N+](CCc4ccccc4)(CC2)CC3)cc1 [Complex Compound (31)]

More lines, now with the values behind:

Compound | I^a/I^a0 (absorbance ratio at absorption maximum after/before lightfastness test) [1] | I^b/I^b0 (absorbance ratio at absorption maximum after/before moisture- and heat-resistances test) [2] | Δλmax(b) (change in absorption maximum wavelength) [2] [nm] | I^c/I^c0 (absorbance ratio at absorption maximum after/before storage stability test) [3] | Δλmax(c) (change in absorption maximum wavelength) [3] [nm]
Cc1c(/C=N/[N-]c2nc3ccccc3o2)c([O-])n(Cc2ccco2)c(=O)c1C#N.Cc1c(/C=N/[N-]c2nc3ccccc3o2)c([O-])n(Cc2ccco2)c(=O)c1C#N.Cc1c(/C=N/[N-]c2nc3ccccc3o2)c([O-])n(Cc2ccco2)c(=O)c1C#N.Cc1c(/C=N/[N-]c2nc3ccccc3o2)c([O-])n(Cc2ccco2)c(=O)c1C#N.Fc1cccc(-[n+]2ccc(-c3cc[n+](-c4cccc(F)c4)cc3)cc2)c1.[Co+3].[Co+3] [Complex Compound (24)] | 0.92 | 1.00 | 0.5 | 1.02 | 0.5
CCn1c([O-])c(/C=N/[N-]C(=O)c2ccc(C(F)(F)F)cc2)c(C)c(C#N)c1=O.CCn1c([O-])c(/C=N/[N-]C(=O)c2ccc(C(F)(F)F)cc2)c(C)c(C#N)c1=O.CCn1c([O-])c(/C=N/[N-]C(=O)c2ccc(C(F)(F)F)cc2)c(C)c(C#N)c1=O.CCn1c([O-])c(/C=N/[N-]C(=O)c2ccc(C(F)(F)F)cc2)c(C)c(C#N)c1=O.Oc1ccc(-c2ccccc2)cc1-[n+]1ccc(-c2cc[n+](-c3cc(-c4ccccc4)ccc3O)cc2)cc1.[Co+3].[Co+3] [Complex Compound (9)] | 0.97 | 1.00 | 0 | 1.00 | 0
Cc1c(/C=N/[N-]c2nnnn2-c2ccccc2)c([O-])n(CC(C)C)c(=O)c1C#N.Cc1c(/C=N/[N-]c2nnnn2-c2ccccc2)c([O-])n(CC(C)C)c(=O)c1C#N.Cc1c(/C=N/[N-]c2nnnn2-c2ccccc2)c([O-])n(CC(C)C)c(=O)c1C#N.Cc1c(/C=N/[N-]c2nnnn2-c2ccccc2)c([O-])n(CC(C)C)c(=O)c1C#N.[Co+3].[Co+3].c1cc[n+]2c(c1)-c1cccc[n+]1CCC2 [Complex Compound (14)] | 0.92 | 1.00 | 0 | 1.01 | 0
CCn1c([O-])c(/C=N/[N-]C(=O)c2ccc(C(F)(F)F)cc2)c(C)c(C#N)c1=O.CCn1c([O-])c(/C=N/[N-]C(=O)c2ccc(C(F)(F)F)cc2)c(C)c(C#N)c1=O.CCn1c([O-])c(/C=N/[N-]C(=O)c2ccc(C(F)(F)F)cc2)c(C)c(C#N)c1=O.CCn1c([O-])c(/C=N/[N-]C(=O)c2ccc(C(F)(F)F)cc2)c(C)c(C#N)c1=O.[Co+3].[Co+3].c1cc[n+]2c(c1)-c1cccc[n+]1CCC2 [Complex Compound (11)] | 0.97 | 1.00 | 0 | 1.00 | 0
Cc1c(/C=N/[N-]c2nnnn2-c2ccccc2)c([O-])n(CC(C)C)c(=O)c1C#N.Cc1c(/C=N/[N-]c2nnnn2-c2ccccc2)c([O-])n(CC(C)C)c(=O)c1C#N.Cc1c(/C=N/[N-]c2nnnn2-c2ccccc2)c([O-])n(CC(C)C)c(=O)c1C#N.Cc1c(/C=N/[N-]c2nnnn2-c2ccccc2)c([O-])n(CC(C)C)c(=O)c1C#N.[Co+3].[Co+3].c1ccc2c(c1)ccc[n+]2CCCC[n+]1cccc2ccccc21 [Complex Compound (21)] | 0.87 | 1.00 | 0.5 | 1.01 | 0.5
Cc1c(/C=N/[N-]c2nnnn2-c2ccccc2)c([O-])n(CC(C)C)c(=O)c1C#N.Cc1c(/C=N/[N-]c2nnnn2-c2ccccc2)c([O-])n(CC(C)C)c(=O)c1C#N.Cc1c(/C=N/[N-]c2nnnn2-c2ccccc2)c([O-])n(CC(C)C)c(=O)c1C#N.Cc1c(/C=N/[N-]c2nnnn2-c2ccccc2)c([O-])n(CC(C)C)c(=O)c1C#N.[Co+3].[Co+3].c1ccc2c[n+](CCCCCCCCCC[n+]3ccc4ccccc4c3)ccc2c1 [Complex Compound (16)] | 0.90 | 1.00 | 0 | 1.01 | 0
